Reference: patent US20050043264A1, “Methods of inhibiting neurodegenerative disease” (priority 2003, published 2005)
Entries after “also recorded” stand apart in the source; their conditions may differ. Where a name gives a salt, the structure may show the parent alone.

Key:
Cdk5-pY15 [1] = test: Cdk5-Y15 phosphorylation (Cdk5-pY15) immunoblot, BG2-c2 cells; format: cell-based, Drosophila melanogaster; conditions: Aβ42 (2 μM)-treated BG2-c2 cells; STI571 20 μM 60 minutes; dsRNA 20 μg/2×10^6 cells two days before Aβ42
Method: To understand the role of Drosophila Cdk5 in neurodegeneration, the phosphorylation of Cdk5-Y15 was investigated to determine if it was correlated with the pathological activation of Cdk5 in neuronal cells. Cdk5-Y15 phosphorylation (Cdk5-pY15) levels in BG2-c2 cells were examined over time following treatment with 2 μM Aβ42. The presence of […] in the immunoprecipitates was shown by immunoblotting with an anti-phospho antibody specific for Cdk5-pY15. Within 60 minutes, Aβ42 caused an elevation of Cdk5-pY15, which was coincident with an increase in Cdk5 kinase activity (FIG. 4A). […] Moreover, dsRNA-abl (20 μg/2×10^6 cells) was transfected into BG2-c2 cells to reduce Abl expression two days before Aβ42 treatment.

Cdk5 [2] = test: Cdk5 kinase activity in Aβ42-treated IMR-32 cells (histone H1 kinase assay); format: cell-based, human; conditions: Aβ42 (20 μM) 24 hours, STI571 pretreatment 24 hours
Method: (§1) A kinase assay was performed by washing immunoprecipitates three times with kinase reaction buffer (50 mM HEPES [pH 7.0], 10 mM MgCl2, and 1 mM DTT). The beads with target proteins were incubated with kinase reaction buffer containing 2 μg of substrate (histone H1)(Calbiochem, San Diego, Calif.) and 10 μCi of ^33Pγ-ATP in a final volume of 40 μl at 30° C. for 30 minutes.
(§2) To determine if the role of Abl in Drosophila neurodegeneration is conserved in mammals, Abl kinase activity in Aβ42-induced mammalian neuronal apoptosis was investigated. […] Formation of p25 has been considered a causative agent that contributes to the deregulation of Cdk5 in human AD (Lee et al., 2000, Nature 405:360; Patrick et al., 1999, Nature 402:615). […] Thus, it was important to determine whether the conversion of p35 into p25 is sufficient to deregulate Cdk5 activity while Abl activation is inhibited. […] The cells were then assayed for Cdk5 kinase activity and Y-15 phosphorylation.

BG2-c2 cells = test: Modified MTT cell viability assay, Aβ42-induced neuronal death; format: cell-based, Drosophila melanogaster; conditions: BG2-c2 cells treated with Aβ42; dsRNA transfected two days before Aβ42 for 24 hours
Method: (§3) The modified MTT assay (Sigma, St Louis, Mo.) was used to quantify neuronal cell viability (Lee et al., 2000, Nature 405:360). The intensities were measured using an optical density reader (SpectroMAXplus, Molecular Devices, Sunnyvale, Calif.) at 570 nm (background: 630 nm) and proportionally represented the viable cell numbers.

IMR-32 cells = test: Neuronal viability, Aβ42-induced IMR-32 neuronal death; format: cell-based, human; conditions: IMR-32 cells pretreated 24 hours with STI571, then Aβ42 24 or 72 hours
Method: as §3, §2

Cdk5 [3] = test: In vitro Cdk5 kinase assay of immunoprecipitates with histone H1 as substrate, BG2-c2 cells; format: cell-based, Drosophila melanogaster; conditions: for Abl kinase activity regulation, used to confirm Abl requirement for modulation of Cdk5 kinase: BG2-c2 cells, other Abl kinase regulating agents
Method: as §1
Whether Cdk5 was activated in the Abl-Cdk5 complex was also investigated. Cdk5 was immunoprecipitated from the cell lysate for an vitro kinase assay, using histone H1 as a substrate (Connell-Crowley et al., 2000, Curr. Biol. 10:599). Similar to results reported for mammalian cells (Alvarez et al., 2001, Exp. Cell Res. 264:266), Drosophila Cdk5 kinase activity was elevated following Aβ42 treatment as compared to controls (FIG. 2B, bottom panel). […] Moreover, other Abl kinase regulating agents including doxorubicin (DX) and erbstatin analog (EA) were used to activate or suppress Abl kinase activity, respectively, and confirmed that Abl kinase activity was required for modulation of Cdk5 kinase.

Cdk5-pY15 [4] = test: Cdk5-pY15 in Aβ42-treated IMR-32 cells (immunoblot); format: cell-based, human; conditions: Aβ42 (20 μM) 24 hours, STI571 pretreatment 24 hours
Method: (§4) Cell lysate was produced in lysis buffer or extract buffer (Juang and Hoffmann,1999, Oncogene 18:5138) for Cdk5 immunoprecipitation. Proteins were analyzed by direct Western blotting (30 μg/lane) or blotting after immunoprecipitation (1˜2 mg/immunoprecipitation). Immunoprecipitates were collected by binding to protein G PLUS/Protein A-Agarose (Oncogene Research Products, Nottingham UK). The antibodies used are listed below: anti-Cdk5 antibody (clone DC17), (Upstate, Charlottesville, Va.); sc-750, (Santa Cruz Biotechnology, Inc., Santa Cruz Calif.), anti-Cdk5-pY15 antibody (sc-1 2919),(Santa Cruz Biotechnology, Inc., Santa Cruz C), anti-HA antibody (BAbCO, Berkely, Calif.), anti-p35 antibody (sc-820), (Santa Cruz Biotechnology, Inc., Santa Cruz Calif.), and affinity-purified Ena polyclonal antibody (generated by Dr. F. M. Hoffmann' Lab) (McArdle Laboratory for Cancer Research and Laboratory of Genetics, University of Wisconsin-Madison) ECL detection reagent (NEN, Boston, Mass.) was used to detect the immunoreactive proteins.
(§5) To determine if the role of Abl in Drosophila neurodegeneration is conserved in mammals, Abl kinase activity in Aβ42-induced mammalian neuronal apoptosis was investigated. […] Formation of p25 has been considered a causative agent that contributes to the deregulation of Cdk5 in human AD (Lee et al., 2000, Nature 405:360; Patrick et al., 1999, Nature 402:615). […]

BG2-c2 neuronal cells = test: Cdk5 subcellular translocalization by immunostaining and confocal microscopy; format: cell-based, Drosophila melanogaster; conditions: 2 μM Aβ42 one hour, agent given simultaneously with or before Aβ42 (BL-1 5 μM)
Dp35 = Dp35 cleavage in HA-tagged Dp35 transfected BG2-c2 cells (anti-HA immunoblot); format: cell-based, Drosophila melanogaster; conditions: BG2-c2 cells with HA-tagged Dp35, A23187 with 5 μM CaCl2, 24 hours
Excerpt: Like Abl, p35 is conserved in Drosophila and functions to modulate Cdk5 activity during neurite outgrowth (Connell-Crowley et al., 2000, Curr. Biol. 10:599). In the AD brain, mammalian p35 is cleaved into p25 by calpain to deregulate Cdk5 (Lee et al., 2000, Nature 405:360). Although a putative calpain is also present in Drosophila (Jekely and Friedrich, 1999, J. Biol. Chem. 274:23893), the consensus calpain cleavage site is absent in Drosophila p35 (Dp35) (FIG. 5A). Therefore, it was unclear whether Dp35 would be converted into p25 upon Aβ42 stimulation. To investigate this possibility, carboxyl-terminal HA-tagged Dp35 was transfected into BG2-c2 cells before treating them with Aβ42or A23187/Ca^2+ (calcium ionophore). […] To analyze the Dp35 cleavage in vivo, transgenic flies co-expressing Dp35 and Aβ42 in the developing eyes were generated using a gmr-GAL4 driver. Consistent with the in vitro result, no visible cleavage or reduction of the Dp35 protein in the Aβ42 transgenic flies were observed (FIG. 5B, right panel).

p35 = test: Cleavage of p35 into p25 in Aβ42-treated IMR-32 cells (immunoblot); format: cell-based, human; conditions: Aβ42 (20 μM) 24 hours, STI571 pretreatment 24 hours
Method: as §4, §5

## Cc1ccc(NC(=O)c2ccc(CN3CCN(C)CC3)cc2)cc1Nc1nccc(-c2cccnc2)n1 [STI571, imatinib mesylate]
Cdk5-pY15 [1]
  Cdk5-pY15 (Cdk5-Y15 phosphorylation): diminished; also recorded: reduced
Cdk5 [2]
  Cdk5 kinase activity: abolished; also recorded: suppressed
BG2-c2 cells
  Aβ42-induced neuronal death (neuronal viability, MTT): rescued Aβ42-induced neuronal death; also recorded: suppressed
IMR-32 cells
  Aβ42-induced IMR-32 neuronal death (neuronal viability): rescued the neuronal death; also recorded: effectively suppressed
Cdk5 [3]; Aβ42 (2 μM)-treated BG2-c2 cells, STI571 20 μM 60 minutes, dsRNA 20 μg/2×10^6 cells two days before Aβ42
  Cdk5 kinase activity (histone H1 phosphorylation): sharply diminished; also recorded: reduced
Cdk5-pY15 [4]
  Cdk5-pY15 (Y15 phosphorylation): abolished; also recorded: suppressed
BG2-c2 neuronal cells
  Aβ42-stimulated Cdk5 translocalization to the perinuclear cytoplasm: markedly suppressed; also recorded: no Abl or Cdk5 protein translocalization to perinuclear region

## CNc1ccc2oc(C[C@H]3O[C@@]4(CC[C@H]3C)O[C@H]([C@H](C)C(=O)c3ccc[nH]3)[C@H](C)C[C@H]4C)nc2c1C(=O)O [A23187]
Dp35
  Dp35 cleavage / Dp35 protein levels: no noticeable cleavage or reduction; also recorded: no detectable cleavage or reduction

## CCCC[C@@H](C=O)NC(=O)[C@H](CC(C)C)NC(=O)OCc1ccccc1 [Calpeptin]
p35
  Cleavage of p35 into p25 (formation of p25): blockade of p35 cleavage
Cdk5 [2]
  Cdk5 kinase activity: considerably reduced
Cdk5-pY15 [4]
  Cdk5-pY15 (Y15 phosphorylation): did not diminish

## COc1cccc2c1C(=O)c1c(O)c3c(c(O)c1C2=O)C[C@@](O)(C(=O)CO)C[C@@H]3O[C@H]1C[C@H](N)[C@H](O)[C@H](C)O1 [doxorubicin]
Cdk5 [3]
  Abl kinase activity regulation, used to confirm Abl requirement for modulation of Cdk5 kinase: activate

## COC(=O)C=Cc1cc(O)ccc1O [erbstatin analog, 2,5-dihydroxymethylcinnamate]
Cdk5 [3]
  Abl kinase activity regulation, used to confirm Abl requirement for modulation of Cdk5 kinase: suppress
